For this test, the target named is T1, GRK2 (Homo sapiens, UniProt P25098).
T1 sequence (P25098 1-689): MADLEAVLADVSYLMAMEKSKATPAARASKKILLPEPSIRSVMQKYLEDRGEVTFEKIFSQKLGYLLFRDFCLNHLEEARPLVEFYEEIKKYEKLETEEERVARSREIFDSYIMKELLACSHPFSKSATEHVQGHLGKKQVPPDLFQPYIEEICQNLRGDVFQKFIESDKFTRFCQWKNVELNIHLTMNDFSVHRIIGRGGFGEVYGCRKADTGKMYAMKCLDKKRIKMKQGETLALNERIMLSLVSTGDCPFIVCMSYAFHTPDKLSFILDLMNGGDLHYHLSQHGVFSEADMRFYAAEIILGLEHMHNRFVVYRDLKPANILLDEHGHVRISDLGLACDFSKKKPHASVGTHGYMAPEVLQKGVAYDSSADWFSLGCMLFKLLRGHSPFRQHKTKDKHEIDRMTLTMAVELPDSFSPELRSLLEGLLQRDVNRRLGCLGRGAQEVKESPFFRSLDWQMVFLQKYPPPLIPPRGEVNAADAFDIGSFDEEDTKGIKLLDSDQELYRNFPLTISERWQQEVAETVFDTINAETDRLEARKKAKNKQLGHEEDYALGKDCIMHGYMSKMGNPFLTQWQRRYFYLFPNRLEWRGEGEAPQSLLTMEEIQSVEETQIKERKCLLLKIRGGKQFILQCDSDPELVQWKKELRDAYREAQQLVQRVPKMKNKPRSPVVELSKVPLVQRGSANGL
Briefly: biochemical. The settings on record: GRK2 IC50 (μM), 10 nM GRK2; 10 uM ATP.
Protocol: Positive and negative control wells received an equal volume of DMSO. The final DMSO concentration in the assay is 1%.
The plate was placed in centrifuge equipped with a spin-bucket rotor and spun for 1 min at 1000 rpm.
GRK2 enzymatic reactions were initiated with the addition of 2 μL/well of 50 nM GRK2 in assay buffer. Plates were centrifuged for 1 min at 1000 rpm. For negative control wells, the order of reagent addition was reversed: 10 μL/well ADP detection mix (see below) was added first, followed by the addition of 2 μL/well of the GRK2 solution. Reaction mixtures were incubated at ambient temperature for 2 hours.
Following incubation, the reactions were quenched with 10 μL/well of the Transcreener ADP detection mix. […] The plates were then centrifuged for 1 min at 1000 rpm.
Fluorescence polarization values of the reaction mixtures were read on a Safire II plate reader after a 60 min incubation at ambient temperature. Excitation wavelength=590 nm; emission wavelength=650 nm.
The fluorescence polarization data were converted to % activity as follows:
% activity=(sample−NC)/(PC−NC)*100
where NC is the mean of negative control (ADP detection mix added prior to GRK2 addition), and PC is the mean of positive control (GRK2 reaction without inhibitor). IC50 values are determined from a 4-parameter fit, using the following equation:
Y=Bottom+(Top−Bottom)/(1+10^((Log IC50-X)*Hill slope)),
where X=log10 of the compound concentration.
As a reminder, the IC50 is the midpoint of a concentration-inhibition curve. Read a high IC50 as a need for much substance. `CC(c1cccc(NS(C)(=O)=O)c1)n1cnc2ccc(-c3cn[nH]c3)cc2c1=O` (stereo not shown) [Compound 33, N-[3-[1-[4-Oxo-6-(1H-pyrazol-4-yl)quinazolin-3-yl]ethyl]phenyl]methanesulfonamide] came in with an IC50 of 0.033 µM.
On to `COc1cccc(C(C)n2cnc3ccc(-c4c[nH]nc4N)cc3c2=O)c1` (stereo not shown) [Compound 19, 6-(3-Amino-1H-pyrazol-4-yl)-3-[1-(3-methoxyphenyl)ethyl]quinazolin-4-one], for which the IC50 was above 50 µM.
In the case of `CCC(c1cccc(OC)c1)n1cnc2ccc(-c3cn[nH]c3)cc2c1=O` (stereo not shown) [Compound 35, 3-[1-(3-Methoxyphenyl)propyl]-6-(1H-pyrazol-4-yl)quinazolin-4-one], 0.122 µM corresponded to half-maximal inhibition (IC50).
The molecule `CC(c1cccc(C(=O)NCc2ccc(F)cc2)c1)n1cnc2ccc(-c3cn[nH]c3)cc2c1=O` (stereo not shown) [Compound 61, N-[(4-Fluorophenyl)methyl]-3-[1-[4-oxo-6-(1H-pyrazol-4-yl)quinazolin-3-yl]ethyl]benzamide] had an IC50 of 0.007 µM.
Under `O=C(NCc1c(F)cccc1F)c1cc(F)cc(Cn2cnc3ccc(-c4cn[nH]c4)cc3c2=O)c1` [Compound 72, N-(2,6-Difluorobenzyl)-3-fluoro-5-((4-oxo-6-(1H-pyrazol-4-yl)quinazolin-3(4H)-yl)methyl)benzamide] stands below 0.01 µM; under `COc1cccc(Cn2cnc3ccc(-c4ccnc5[nH]ccc45)cc3c2=O)c1` [Compound 53, 3-[(3-Methoxyphenyl)methyl]-6-(1H-pyrrolo[2,3-b]pyridin-4-yl)quinazolin-4-one], 2.45 µM.
Under `O=c1c2cc(-c3cn[nH]c3)ccc2ncn1Cc1cccc2c1OCO2` [Compound C4, 3-(1,3-Benzodioxol-4-ylmethyl)-6-(1H-pyrazol-4-yl)quinazolin-4-one] stands 0.093 µM; under `COc1cccc(Cn2c(C(F)(F)F)nc3ccc(-c4cn[nH]c4)cc3c2=O)c1` [Compound 21, 3-[(3-Methoxyphenyl)methyl]-6-(1H-pyrazol-4-yl)-2-(trifluoromethyl)quinazolin-4-one], 0.425 µM.
`COc1cccc(C(CCO)n2cnc3ccc(-c4cn[nH]c4)cc3c2=O)c1` (stereo not shown) [Compound 32, 3-(3-Hydroxy-1-(3-methoxyphenyl)propyl)-6-(1H-pyrazol-4-yl)quinazolin-4(3H)-one] returned an IC50 of 0.157 µM.
As to `NS(=O)(=O)c1cccc(Cn2cnc3ccc(-c4cn[nH]c4)cc3c2=O)c1` [Compound 34, 3-[[4-Oxo-6-(1H-pyrazol-4-yl)quinazolin-3-yl]methyl]benzenesulfonamide], the IC50 was determined as 0.03 µM.
In the case of `O=C(NCc1ccc(F)cc1)c1cccc(-n2cnc3ccc(-c4cn[nH]c4)cc3c2=O)c1` [Compound C1, N-[(4-Fluorophenyl)methyl]-3-[4-oxo-6-(1H-pyrazol-4-yl)quinazolin-3-yl]benzamide], the midpoint of inhibition, the IC50, lay at 1.63 µM. Compared with the last molecule, the IC50 is about 54-fold higher.
For the molecule `COc1ccc(F)cc1Cn1cnc2ccc(-c3cn[nH]c3)cc2c1=O` [Compound 40, 3-[(5-Fluoro-2-methoxy-phenyl)methyl]-6-(1H-pyrazol-4-yl)quinazolin-4-one], the IC50 is 1.72 µM.
As to `O=C(NCc1ccc(F)cc1)c1cc(Cn2cnc3ccc(-c4cn[nH]c4)cc3c2=O)ccn1` [Compound C5, N-[(4-Fluorophenyl)methyl]-4-[[4-oxo-6-(1H-pyrazol-4-yl)quinazolin-3-yl]methyl]pyridine-2-carboxamide], the IC50 turned out to be 0.212 µM. Compared with the last molecule, the IC50 is about 8.1-fold lower.

(Values after patent publication US20220267298A1 (priority 2019, published 2022).)
